Patent US12035718B2, “Biofilm penetrating compositions and methods” (Nevada Naturals Inc., priority 2017, dated 2024)
Counter-ions that a name gives are not always drawn.

Legend:
[1] = tested on: S. epidermidis; assay: MIC of LAE/SL mixtures (FIG. 8B); assay type: cell-based; settings: Example 8, FIG. 8B; solubilized in DW
Experimental: In Example 8, different pathogens were tested for MIC (Minimum Inhibitory Concentration) with formulations that comprise combinations of LAE and SL. […] In FIGS. 8A and 8B the active ingredients LAE and SL were solubilized in DW as indicated and were tested. […] FIG. 8B reports MIC on combinations of LAE/SL exposed to S. epidermidis.

[2] = tested on: Candida albicans; assay: MIC of LAE/SL mixtures (FIG. 7, FIG. 8A); assay type: cell-based; settings: Example 8, FIG. 8A; solubilized in DW
Experimental: MIC values of various mixtures of N^α-lauroyl arginine ethyl ester HCl salt and sucrose monolaurate in preventing the growth of Candida alibicans were determined. […] In comparing ratios of wt % of SL to wt % of LAE, ratios from 2:1 to 1:2 show enhancement compared to 100 wt % LAE.

[3] = tested on: S. aureus; settings: Example 8, FIG. 8A; solubilized in DW
Experimental: In Example 8, different pathogens were tested for MIC (Minimum Inhibitory Concentration) with formulations that comprise combinations of LAE and SL. […] In FIGS. 8A and 8B the active ingredients LAE and SL were solubilized in DW as indicated and were tested. FIG. 8A reports MIC combination of LAE and SL tested on Candida albicans fungi in duplicate and for gram positive S. aureus. FIG. 8B reports MIC on combinations of LAE/SL exposed to S. epidermidis.

[4] = rats; cited from earlier work
[5] = tested on: P. aeruginosa; settings: literature reports (Musk et al.; Kim et al.); cited from earlier work
[6] = tested on: Streptococcus pyogenes, Streptococcus mitis, Staphylococcus epidermidis, and E. coli; settings: 10 wt % of hexylene glycol, in vitro; cited from earlier work

With sucrose laurate [SL] as the compound, how does the “MIC, result in words” value [1] read?
Its value is “much higher MIC values than LAE or combinations of LAE/SL”.

And the “MIC, result in words” value [2]?
The value was “much higher MIC values than LAE or combinations of LAE/SL”.

What about the “MIC, result in words” value [3] of the same compound?
The value was “much higher MIC values than LAE or combinations of LAE/SL”.

Which “oral LD50” value [4] does the source give for CCOC(=O)CC(O)(CC(=O)OCC)C(=O)OCC [triethyl citrate] here?
Its value is 7.0 cc/kg.

For “Ferric ammonium citrate [reference compound]”, which “biofilm formation, result in words” value [5] is on record?
The value was “inhibited biofilm formation in a dose-dependent manner”.

With CCCCCCCCCCCC(=O)N[C@@H](CCCNC(=N)N)C(=O)OCC [LAE, N^α-lauroyl-L-arginine-ethyl ester] as the compound, how does the “biofilm formation, result in words” value [5] read?
The value was “inhibited biofilm formation”.

With CC(O)CC(C)(C)O (stereo not shown) [hexylene glycol] as the compound, how does the “killing power, comparison” value [6] read?
Its value is “equivalent to 30 wt % of 1,3 butylene glycol or propylene glycol”.
